Assay: Solubility evaluation in combinations of solvent systems
Type: physicochemical
Description: In addition, the solubility of nalmefene in varying concentrations was evaluated using different combinations of solvent systems. The solvent systems included combinations of polar solvents with different surface active agents. Exemplary surface active agents included: Tween 20, Tween 80, […]® 34/44, KOLLIPHOR® HS 15, SOLUTOL® NF, LABRAFIL® M2125 CS and LABRAFIL® M1944 CS.

Measured: Observation (solubility)

C=C1CC[C@@]2(O)[C@H]3Cc4ccc(O)c5c4[C@@]2(CCN3CC2CC2)[C@H]1O5 [nalmefene]
Completely Soluble,: ID 1, Ethanol:Water 75:25, nalmefene 200 mg/mL | ID 2 (second), Ethanol:Water:Propylene Glycol 82.5:12.5:5, nalmefene 200 mg/mL | ID 2, Ethanol:Water:Tween 20 75:24.5:0.5, nalmefene 250 mg/mL | ID 3, Ethanol:Water:Propylene Glycol 68:22:10, nalmefene 350 mg/mL | ID 5, Ethanol:Water:Propylene Glycol:Tween 80 70:25:4:1, nalmefene 350 mg/mL | ID 6, Ethanol:Water:Glycerine 70:20:10, nalmefene 300 mg/mL | ID 7, Ethanol:Water:Gelucire 34/14 75:20:5, nalmefene 200 mg/mL | ID 8, Ethanol:Water:Labrafil M2125 CS 80:17.5:2.5, nalmefene 200 mg/mL | ID 9, Ethanol:Water:Labrafil M1944 CS 80:17.5:2.5, nalmefene 200 mg/mL
